Key:
[1] = target: NMDAR; assay: NMDA receptor [3H]-MK-801 competition radioligand binding in rat forebrain; details: for NMDAR binding affinity pKi (mean ± SEM): [3H]-MK-801 1 nM competition, 1 mM glutamate, 0.1 mM glycine, pH 7.4, 2 h ambient, N = 1-4; for % inhibition of specific [3H]-MK-801 binding: at 10,000 nM
Method: Rat forebrains from 7-8 week old Sprague-Dawley rats (BioChemed, USA) were homogenized in a buffer containing 10 mM HEPES and 1 mM EDTA (pH 7.4) using a mechanical homogenizer (Janke-Kunkel Ultra-Turrax T25). A 10 mL volume was used per brain for all steps involving suspension of the brain homogenate tissue. The brain homogenate was then centrifuged (15 minutes at 20,000 RPM and 4 ° C). The supernatant was carefully poured off and the pellet was resuspended in fresh 10 mM HEPES and 1 mM EDTA containing buffer. This process was repeated 5 times. Following the 5th centrifugation, the buffer was replaced with a buffer containing 10 mM HEPES (pH 7.4). The homogenate was then incubated in a water bath at 37 ° C in the dark (covered with foil). Centrifugation was then repeated 3 additional times and after resuspending in the HEPES buffer, the final homogenate was aliquoted and stored at −80 ° C until use. Protein concentration of the homogenate was determined by utilizing the Bradford method using Coomassie protein assay reagent (Sigma, USA) with Bovine Serum albumin (Sigma, USA) as a standard.
At the time of the experiment, the homogenate was diluted to a final concentration of […] in 10 mM HEPES buffer, 1 mM glutamate, and 0.1 mM glycine (pH 7.4) and combined with 1 nM (+)-[3H]-MK-801 (Perkin Elmer NET972250UC), unlabeled competitor compounds at varying concentrations, or 30 uM MK-801 to determine non-specific binding, in a total volume of 1 mL in a 96 well plate. The protein homogenate is always added to the wells last. The plates were covered with aluminum foil, and placed on a mechanical shaker (250 RPM) for 2 h at ambient temperature ([…]). After 2 h, the homogenate was collected by vacuum filtration using a Unifilter-96 Cell Harvester (Perkin Elmer) over presoaked UniFilter-96 GF/C P Microplates (Perkin Elmer) and filters were washed with room temperature 10 mM HEPES buffer (pH 7.4) (3×1 mL). The filter plates were dried overnight in a fume hood. The next day, the bound tritium was measured via liquid scintillation counting with […] MicroScint-O (Perkin Elmer) added per well, using a MicroBeta2 Plate Reader with 6-detectors scintillation counter (Perkin Elmer) at 55% efficiency. IC50 value estimates were determined in GraphPad Prism 9.3.1 using non-linear regression (single site fit) with log-concentration plotted against percent specific binding. Ki values were calculated using the equation of Cheng and Prusoff. […] Experiments were performed in duplicate. N=1-4 per compound.

[2] = target: T1, human Dopamine Transporter (Homo sapiens, UniProt Q01959); assay: Human dopamine reuptake transporter (DAT) inhibition functional study, ASP+ uptake in CHO cells; type: cell-based; details: at 10,000 nM, 10 μM ASP+, 1 h, CHO cells stably expressing human DAT
T1 construct: host or cells: CHO
Method: CHO cells stably expressing human Dopamine Transporter Protein (Valiscreen® Perkin Elmer RBHDATM-K) were cultured in 150 mm Tissue Culture dishes (Cell Treat 229651) at 37 ° C and 5% CO2. Ham's F-12 Nutrient Mix (Gibco, USA) was supplemented with 10% dialyzed FBS (Gibco, USA), 100 µg/ml Geneticin (Gibco, USA), and 100 units/ml Penicillin and Streptomycin (Gibco, USA) as the culture media. Cells were maintained on a consistent splitting and assay schedule and utilized until passage 30 (no change in control experiments were observed up to this point).
Cells were detached from their growth dishes using Trypsin-EDTA (0.25%) (Gibco, USA) at 70-80% confluency. The cells were counted and diluted in culture media to a density of 300,000 cells/mL. 200 µl of this mixture was added to each well of a clear bottom, black-walled 96 well plate (Coming 3603, USA). Plates were incubated in the laminar flow hood for one hour prior to being placed in the cell culture incubator in order to encourage even cell distribution across the entire well surface.
The next day, Krebs-Ringer HEPES (KRH) Buffer pH 7.4 was prepared (10 mM HEPES, 130 mM NaCl, 1.3 mM KCl, 2.2 mM CaCl2, 1.2 mM MgSO4, 1.2 mM KH2PO4) and titrated with 6N NaOH. This buffer was stored in a 4 ° C refrigerator for up to 4 days (after which it was discarded). Additionally, a solution containing KRH buffer and 330 µM Trypan Blue (Sigma T6146-25G), a solution of 20 mM ASP+(MedChem Express, NJ, USA) dissolved in DMSO, were both prepared. The 20 mM DMSO stock of ASP+ was diluted to a working concentration of 40 µM in KRH buffer. DMSO solutions of 40 mM GBR-12935 dihydrochloride (MedChem Express, NJ, USA) and 40 mM test compounds were also prepared. DMSO solutions of test compounds were then diluted to a range of […]-40 μM in KRH Buffer with 1% additional DMSO added to provide consistent DMSO concentration in all samples. […] The final DMSO concentration in each well was 0.3%. […] KRH buffer with DMSO “vehicle control” served as the total fluorescence control to represent the maximum amount of substrate uptake without DAT transporter inhibition.
At the time of assay, cell media was carefully removed from the wells via pipette aspiration. 100 μL of KRH buffer was then added to all wells. Both controls, non-specific and total fluorescence stock solutions were then added to the plate (50 µL of either 400 µM GBR-12935 or KRH DMSO buffer respectively). Additionally, GBR-12935 and test compounds were added to the plate ([…] for each sample). The 10,000 nM concentration of test compound was run in triplicate wells. Next, […] ASP+(final concentration of 10 μM) was added to each well initiating the experiment. Cells were placed in the cell culture incubator for one hour, at which point 20 µL of 330 µM Trypan Blue was added to each well to quench extracellular fluorescence. The cells were then placed in the microplate reader (BioTek Synergy Neo 2), using Gen5 Ver 3.11 software. The reader was preheated to 37 ° C and following a brief orbital shake, intracellular fluorescence was measured using a fluorescence intensity reading. Intracellular ASP+ was excited at 430 nm and emission read at 510 nm via a bottom read using the extended gain settings and high lamp energy setting.

[3] = target: T2, hSERT (Homo sapiens, UniProt P31645); assay: SERT [3H]-citalopram competition radioligand binding, hSERT expressing HEK293 cell membranes
T2 construct: no vendor name is printed for this cell line) RBHSTM-K; host or cells: HEK293
Method: Valiscreen Serotonin Transporter (SERT) (Human) Cell Line (HEK293 host cells, Product No: RBHSTM-K) grown in DMEM/F12 media with 10% FBS, 0.1 mg/ml Geneticin, 1% GlutaMAX, and 1% Penicillin-Streptomycin added were used to prepare SERT membrane fractions. Cells were grown in 150 mm dishes and harvested between 70-90% confluency, passages 5-20. Cells were detached using a buffer containing 1 mM HEPES and 2 mM EDTA (pH 7.4). After detachment, the cells were homogenized using a handheld homogenizer, and the lysate was centrifuged (30 minutes at 30,000×G) at 4 ° C The resulting pellet was resuspended in storage buffer containing 20 mM HEPES, 10 mM MgCl2, 0.1 mM EDTA, and 10% sucrose at pH 7.4. Protein concentration was determined via the Bradford method using Coomassie protein assay reagent (Sigma, USA) with Bovine Serum albumin (Sigma, USA) as standard.
Buffer containing 10 mM HEPES, 120 mM NaCl, and 5 mM KCl (pH 7.4) was added to SERT membranes to dilute to a final protein concentration of 5 µg/mL per well. Additionally, 0.5 nM [3H]-Citalopram (Perkin Elmer NET1039250UC) was added, along with unlabeled competitors at various concentrations or […] citalopram for nonspecific binding controls, bringing the total volume to 1 ml in a 96 well plate. SERT membranes were always added last to each well. The plates were covered from light with aluminum foil and incubated at ambient temperature ([…]) and placed on a mechanical shaker (250RPM) for 2 h. After 2 h, SERT protein was captured via vacuum filtration using a Unifilter-96 Cell Harvester (Perkin Elmer) over presoaked UniFilter-96 GF/C P Microplates (Perkin Elmer) and filters were washed with room temperature 10 mM HEPES, 120 mM NaCl, and 5 mM KCl buffer (pH 7.4) (3×1 mL). The filter plates were dried overnight in a fume hood. The next day, the SERT bound tritium was measured via liquid scintillation counting with MicroScint-O (Perkin Elmer), using a MicroBeta2 Plate Reader with 6-detectors scintillation counter (Perkin Elmer) at 55% efficiency. IC50 value estimates were determined in GraphPad Prism 9.3.1 using non-linear regression (single site fit) with log-concentration plotted against percent specific binding. […] For each experiments compounds were run in duplicate. N=1-3 repeats per compound.

T1 sequence (Q01959 whole entry): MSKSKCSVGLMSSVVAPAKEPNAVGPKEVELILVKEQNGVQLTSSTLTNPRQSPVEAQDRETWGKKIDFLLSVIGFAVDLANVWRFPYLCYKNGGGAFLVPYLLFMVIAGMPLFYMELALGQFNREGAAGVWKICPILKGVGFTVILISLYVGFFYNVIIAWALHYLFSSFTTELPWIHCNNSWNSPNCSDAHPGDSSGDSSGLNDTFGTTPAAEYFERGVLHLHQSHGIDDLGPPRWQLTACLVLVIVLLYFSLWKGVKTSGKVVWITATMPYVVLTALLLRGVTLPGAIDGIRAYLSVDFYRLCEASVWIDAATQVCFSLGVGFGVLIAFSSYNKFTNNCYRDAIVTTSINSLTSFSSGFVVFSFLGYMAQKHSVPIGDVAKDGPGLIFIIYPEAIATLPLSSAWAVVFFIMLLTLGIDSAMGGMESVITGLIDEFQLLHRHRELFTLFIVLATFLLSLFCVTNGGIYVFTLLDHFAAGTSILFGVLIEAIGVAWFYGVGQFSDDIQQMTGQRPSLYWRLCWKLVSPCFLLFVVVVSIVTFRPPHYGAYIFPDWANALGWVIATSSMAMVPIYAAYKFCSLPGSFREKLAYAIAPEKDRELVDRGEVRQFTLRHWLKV
T2 sequence (P31645 whole entry): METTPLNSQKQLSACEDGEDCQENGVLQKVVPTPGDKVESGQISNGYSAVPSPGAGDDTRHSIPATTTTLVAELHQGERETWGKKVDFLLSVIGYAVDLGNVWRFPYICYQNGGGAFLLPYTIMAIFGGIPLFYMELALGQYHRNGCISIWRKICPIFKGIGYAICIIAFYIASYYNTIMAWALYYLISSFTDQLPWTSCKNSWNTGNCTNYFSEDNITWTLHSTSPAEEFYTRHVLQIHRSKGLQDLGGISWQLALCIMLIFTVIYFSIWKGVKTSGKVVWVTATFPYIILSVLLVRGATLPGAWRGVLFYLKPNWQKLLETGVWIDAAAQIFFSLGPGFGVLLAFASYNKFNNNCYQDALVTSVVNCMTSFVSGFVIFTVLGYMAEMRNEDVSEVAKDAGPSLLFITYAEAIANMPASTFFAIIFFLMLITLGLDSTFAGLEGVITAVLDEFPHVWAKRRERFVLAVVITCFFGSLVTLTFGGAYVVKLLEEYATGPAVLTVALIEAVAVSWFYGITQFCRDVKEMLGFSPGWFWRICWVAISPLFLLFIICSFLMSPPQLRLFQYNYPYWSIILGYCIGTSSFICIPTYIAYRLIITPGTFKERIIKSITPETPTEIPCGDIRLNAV

## CCNC(c1ccccc1)C1CCCC1 (stereo not shown) [Compound 32, N-(cyclopentyl(phenyl)methyl)ethanamine]
[1]
  NMDAR binding affinity pKi (mean ± SEM): 5.85

## COc1ccc(C(C)(N)C2CCCC2)cc1 (stereo not shown) [Compound 49, 1-cyclopentyl-1-(4-methoxyphenyl)ethan-1-amine]
[1]
  NMDAR binding affinity pKi (mean ± SEM): 6.49 ± 0.0039

## CC(N)(c1cc2ccccc2s1)C1CCCC1 (stereo not shown) [Compound 51, 1-(benzo[b]thiophen-2-yl)-1-cyclopentylethan-1-amine]
[1]
  NMDAR binding affinity pKi (mean ± SEM): < 5.00
  % inhibition of specific [3H]-MK-801 binding: 34.6%

## CC(N)(c1ccccc1)C1CCC1 (stereo not shown) [Compound 47, 1-cyclobutyl-1-phenylethan-1-amine]
[1]
  NMDAR binding affinity pKi (mean ± SEM): 6.75 ± 0.016

## NC(c1ccccc1)C1CCCC1 (stereo not shown) [Compound 27, Cyclopentyl(phenyl)methanamine]
[1]
  NMDAR binding affinity pKi (mean ± SEM): < 5.00
  % inhibition of specific [3H]-MK-801 binding: 32.4%

## CC(C)C(C)(N)c1ccccc1 (stereo not shown) [Compound 25, 3-methyl-2-phenylbutan-2-amine]
[2]
  inhibition at 10 µM: 37.6%
[1]
  NMDAR binding affinity pKi (mean ± SEM): 5.86 ± 0.044

## CC(N)(c1ccccc1)C1CC1 (stereo not shown) [Compound 2, 1-cyclopropyl-1-phenylethan-1-amine]
[3]
  IC50: > 10 µM
[1]
  NMDAR binding affinity pKi (mean ± SEM): 6.19 ± 0.162

## CC(NC1CCC1)(c1ccccc1)C1CCCC1 (stereo not shown) [Compound 21, N-(1-cyclopentyl-1-phenylethyl)cyclobutanamine]
[2]
  inhibition at 10 µM: 87.3%
[1]
  NMDAR binding affinity pKi (mean ± SEM): 8.06 ± 0.021

## C#CC(N)(c1ccccc1)C1CCCC1 (stereo not shown) [Compound 53, 1-cyclopentyl-1-phenylprop-2-yn-1-amine]
[1]
  NMDAR binding affinity pKi (mean ± SEM): < 5.00
  % inhibition of specific [3H]-MK-801 binding: 45.0%

## CCCNC(c1ccccc1)C1CCCCC1 (stereo not shown) [Compound 31, N-(cyclohexyl(phenyl)methyl)propan-1-amine]
[1]
  NMDAR binding affinity pKi (mean ± SEM): 5.76

## C=CCCC(N)(c1ccccc1)C1CCCC1 (stereo not shown) [Compound 8, 1-cyclopentyl-1-phenylpent-4-en-1-amine]
[2]
  inhibition at 10 µM: 3.1%
[1]
  NMDAR binding affinity pKi (mean ± SEM): 6.24 ± 0.444

## COc1cccc(C(C)(N)C2CCCC2)c1 (stereo not shown) [Compound 13, 1-cyclopentyl-1-(3-methoxyphenyl)ethan-1-amine]
[1]
  NMDAR binding affinity pKi (mean ± SEM): 6.82 ± 0.039

## CC(N)(c1cccc(C(F)(F)F)c1)C1CCCC1 (stereo not shown) [Compound 50, 1-cyclopentyl-1-(3-(trifluoromethyl)phenyl)ethan-1-amine]
[1]
  NMDAR binding affinity pKi (mean ± SEM): 5.86 ± 0.11

## CC(N)(c1ccc(F)cc1)C1CCCC1 (stereo not shown) [Compound 48, 1-cyclopentyl-1-(4-fluorophenyl)ethan-1-amine]
[1]
  NMDAR binding affinity pKi (mean ± SEM): 6.96 ± 0.019

## C=CCC(N)c1ccccc1 (stereo not shown) [Compound 30, 1-phenylbut-3-en-1-amine]
[1]
  NMDAR binding affinity pKi (mean ± SEM): < 5.00
  % inhibition of specific [3H]-MK-801 binding: 43.9%

## NC(c1ccccc1)(C1CCCC1)C1CCC1 (stereo not shown) [Compound 7, Cyclobutyl(cyclopentyl)(phenyl)methanamine]
[2]
  inhibition at 10 µM: 24.1%
[1]
  NMDAR binding affinity pKi (mean ± SEM): 5.63 ± 0.029

## NC(c1ccccc1)C1CCCCC1 (stereo not shown) [Compound 28, Cyclohexyl(phenyl)methanamine]
[2]
  inhibition at 10 µM: 17.9%
[1]
  NMDAR binding affinity pKi (mean ± SEM): 4.97 ± 0.054

## C=CC(N)(c1ccccc1)C1CCCC1 (stereo not shown) [Compound 10, 1-cyclopentyl-1-phenylprop-2-en-1-amine]
[1]
  NMDAR binding affinity pKi (mean ± SEM): 6.05

## CC(c1ccccc1)(C1CCCC1)N1CCCCC1 (stereo not shown) [Compound 22, 1-(1-cyclopentyl-1-phenylethyl)piperidine]
[3]; 0.5 nM [3H]-citalopram competition, hSERT HEK293 membranes, pH 7.4, 2 h ambient, N = 1, read-out: SERT pKi (converted)
  Ki: 0.479 µM
[1]
  NMDAR binding affinity pKi (mean ± SEM): 6.08 ± .0633

## CCCC(N)(c1ccccc1)C1CCCC1 (stereo not shown) [Compound 14, 1-cyclopentyl-1-phenylbutan-1-amine]
[1]
  NMDAR binding affinity pKi (mean ± SEM): 5.94 ± 0.166

Source: patent US20260347330A1, “N-METHYL-D-ASPARTATE RECEPTOR (NMDAR) ANTAGONISTS AND USES THEREOF” (Bexson Biomedical, Inc., priority 2022, published 2026)
